Laboratory results as given in patent US20080107603A1, “Neuroprotectant methods, compositions, and screening methods thereof” (priority 2002, published 2008).
Where two headings read alike, the source gives them in different places.

Key:
[1] = Ox; cited from earlier work
PC12 cells [2] = assay: MTT dye reduction assay, Aβ25-35-induced cytotoxicity; type: cell-based, Rat; details: 1 mM EGT, added 30 min prior to Aβ25-35; 36 h
Procedure: PC12 cells were maintained in DMEM supplemented with 10% heat-inactivated horse serum and 5% fetal bovine serum at 37° C. in a humidified atmosphere of 10% CO2/90% air. All cells were cultured in poly-D-lysine coated culture dishes. The medium was changed every other day, and cells were plated at an appropriate density according to each experimental scale. After 24 h subculture, cells were switched to serum-free N-2 defined medium for treatment. For determination of cell viability, PC12 cells were initially plated at a density of 4×10^4 cells/300 μl in 48-well plates, and the cell viability was determined by the conventional MTT reduction and the lactate dehydrogenase (LDH) release assay as described below.
The MTT assay is a sensitive measurement of the normal metabolic status of cells, particularly that of mitochondria, which reflects early cellular redox changes. After incubation, cells were treated with the MTT solution (final concentration, 1 mg/ml) for 2 h. The dark blue formazan crystals formed in intact cells were dissolved in DMSO, and absorbance at 570 nm was measured with a microplate reader. Results were expressed as the percentage (%) of MTT reduction, assuming that the absorbance of control cells was 100%.

[3] = Guinea Pig; cited from earlier work
[4] = system: tyrosine hydroxylase positive cells (TH+ cells) in the substantia nigra; assay: 6-OHDA lesion rat model, TH+ cells in the substantia nigra; type: in vivo, Sprague-Dawley rats
Procedure: (§1) Male Sprague-Dawley rats with starting weights 225±25 g, were housed in groups of 3 with free access to food and water, under controlled temperature (21° C.±1° C.) and a 12 hour light/dark cycle (light on 07.00 hrs). All scientific procedures were carried out with the approval of the Home Office, U.K. Rats were administered, by gavage, 70 mg/kg of ergothioneine or vehicle (sterile distilled water) daily for 4 days (n=6 per group). On the 4th day, 1 hr after L-ergothioneine or vehicle administration, rats were anaesthetized with small animal Immobilon® (0.04 ml/rat, i.m.), and 6-OHDA (5 μg dissolved in 4 μl of 0.1% ascorbic acid/saline solution) was injected onto median forebrain bundle (stereotactic co-ordinates: 2.2 mm anterior, +1.5 lateral from bregma and −7.9 ventral to dura with ear bars 5 mm below incisor bars (Datla et al. (2001) Neuroreport 12:3871, which reference is herein specifically incorporated by reference in its entirety). One week after 6-OHDA lesioning, rats were killed by cervical dislocation and the brains were dissected out immediately. A coronal section was made at the level of hypothalamus and fore brain, and hind brain parts were separated. Hind-brain was fixed for 7 days in 4% paraformaldehyde, then cryo-protected with 30% sucrose solution for 2-3 days and used for tyrosine hydroxylase (TH) immuno-staining as described by Datla et al. (2001) supra. Briefly, TH was immuno-stained by incubating the 20 μm fixed coronal free-floating sections with polyclonal rabbit anti-TH (1:3000, Chemicon, U.K.) followed by biotinylated anti-rabbit IgG and avidin/biotin complex (Vector Lab, U.K.). The TH immuno-complex was then visualized by diaminobenzidine (DAB) and H2O2. Images of TH positive cells (TH+ cells) were captured by a Xillix CCD digital camera and counted automatically (Image Proplus, Datacell, U.K.). The number of TH+ cells in the substantia nigra on the control side was compared with the lesioned side by averaging the cells in 5 different levels (Datla et al. (2001) supra). […]

[5] = Rabbit; cited from earlier work
peroxynitrite = assay: Intracellular peroxynitrite formation (DHR123 fluorescence); type: cell-based, Rat; details: 25 μM Aβ25-35, 36 h; L-ergothioneine present in the media
Procedure: To monitor intracellular formation of peroxynitrite, the fluorescent probe DHR123 was used. DHR123 is lipophilic and readily diffuses across cell membranes. Upon oxidation of DHR to fluorescent rhodamine, one of the two covalent amino groups tautomerizes to a changed imino, effectively trapping rhodamine within cells. DHR is not oxidized by nitric oxide (NO) but peroxynitrite effectively oxidizes it. After treatment with Aβ25-35 (25 μM) for 36 h in the presence or absence of L-ergothioneine, cells (1×10^4 cells/1 ml in 4-well chamber slide) were rinsed with saline A, and 10 μM DHR in saline A containing 5% fetal bovine serum was loaded. After 20 min incubation at 37 C, cells were examined under a confocal microscope equipped with an argon laser (488 nm; 200 mW). To quntitate peroxynitrite generation in response to Aβ25-35, total peroxynitrite production (basal+incease) was divided by basal peroxynitrite generation. Changes in fluorescence intensity are expressed as a percentage of the control.

PC12 cells [6] = assay: Mitochondrial membrane potential (ΔΨm) by TMRE fluorescence; type: cell-based, Rat; details: 25 μM Aβ25-35; pretreatment of EGT (0.5 mM, 1 mM)
Procedure: To measure the mitochondrial membrane potential (ΔΨm), the lipophilic cationic probe TMRE was used. After treatment with Aβ25-35 (25 μM) for 24 h in the presence or absence of EGT, cells (1×10^4 cells/1 ml in 4-well chamber) were rinsed with PBS, and TME (150 nM) was loaded. After 30 min incubation at 37° C., cells were examined under a confocal microscope (LEICA TCS SP).

PC12 cells [7] = assay: Lipid peroxidation (MDA, BIOXYTECH LPO-586); type: cell-based, Rat; details: Aβ25-35-treated PC12 cells; pretreatment for 30 min
Procedure: The extent of lipid peroxidation in PC12 cells treated with Aβ25-35 was assessed using the commercially available calorimetric assay kit BIOXYTECH LPO-586 (OXIS Research, Portland, Oreg.). After exposure to 50 μM Aβ25-35 in the presence or absence of L-ergothioneine at 37° C. for 24 h, PC12 cells were harvested and homogenized in 20 mM Tris-HCl buffer (pH 7.4), containing 0.5 mM butylated hydroxytoluene to prevent sample oxidation. After centrifugation, 3.25 volumes of diluted R1 reagent (10.3 mM N-methyl-2-phenylindole in acetonitrile) was added to the supernatant, followed by gentle vortex mixing following the addition of 0.75 ml of 37% (v/v) HCl, the mixtures were incubated at 45° C. for 60 min. After cooling and centrifugation, the absorbance of the clear supernatant was read at 590 nm. The protein concentration was determined using the BCA protein assay kit.

[8] = Sheep; cited from earlier work
[9] = system: striatal dopamine content; assay: 6-OHDA lesion rat model, striatal dopamine content; type: in vivo, Sprague-Dawley rats; details: treatment before 6-OHDA lesioning
Procedure: as §1, with “Hind-brain was fixed for 7 days in 4% paraformaldehyde, then cryo-protected with 30% sucrose solution for 2-3 days and used for tyrosine hydroxylase (TH) immuno-staining as described by Datla et al. (2001) supra. Briefly, TH was immuno-stained by incubating the 20 μm fixed coronal free-floating sections with polyclonal rabbit anti-TH (1:3000, Chemicon, U.K.) followed by biotinylated anti-rabbit IgG and avidin/biotin complex (Vector Lab, U.K.). The TH immuno-complex was then visualized by diaminobenzidine (DAB) and H2O2.” left out, “U.K.).” for “U.K.). The number of TH+ cells in the substantia nigra on the control side was compared with the lesioned side by averaging the cells in 5 different levels (Datla et al. (2001) supra).”

## C[N+](C)(C)[C@@H](Cc1c[nH]c(=S)[nH]1)C(=O)[O-] [L-ergothioneine, 2-mercaptohistidine trimethylbetaine]
[1]
  L-Ergothioneine Concentration (mg/100 ml blood): 0.5-2 mg/100 ml blood
PC12 cells [2]
  cytotoxic effect of Aβ25-35 (MTT reduction): inhibited
[3]
  L-Ergothioneine Concentration (mg/100 ml blood): 1-4 mg/100 ml blood
[4]; L-ergothioneine vs vehicle treated group
  improvement in terms of neuroprotection over the controls: approximately 20%
[4]; control (unlesioned) side, vs vehicle group
  number of TH+ cells on the control side of the brain: comparable
[4]; lesioned vs control side, 70 mg/kg by gavage, one week after 6-OHDA lesioning
  reduction in the number of TH+ cells: 46%
[5]
  L-Ergothioneine Concentration (mg/100 ml blood): 1-10 mg/100 ml blood
peroxynitrite
  intracellular peroxynitrite formation: significantly reduced
PC12 cells [6]
  Aβ25-35-induced dissipation of ΔΨm: significantly blocked
PC12 cells [7]
  lipid peroxidation: concentration dependent inhibition
[8]
  L-Ergothioneine Concentration (mg/100 ml blood): 2-6 mg/100 ml blood
[9]
  loss of striatal dopamine content: markedly reduced the loss
